Data on three molecules can be found in patent US20140065697A1, “CELLS AND METHODS FOR PRODUCING ISOBUTYRIC ACID” (Regents of the University of Minnesota, priority 2011, published 2014).

Usually kcat stands for the maximal rate divided by the concentration of active sites. One may read the Km as the concentration of substrate that gives half-maximal velocity.

Like-named read-outs stand apart in the source and are kept apart here.

The target in data set [1] is T1, PadA (Escherichia coli, UniProt P80668).
T1 construct: […]; 6xHis (N); made in house; host or cells: E. coli BL-21 harboring pREP4; plasmid pIBA10 (pQE9)
T1 sequence (P80668 1-499): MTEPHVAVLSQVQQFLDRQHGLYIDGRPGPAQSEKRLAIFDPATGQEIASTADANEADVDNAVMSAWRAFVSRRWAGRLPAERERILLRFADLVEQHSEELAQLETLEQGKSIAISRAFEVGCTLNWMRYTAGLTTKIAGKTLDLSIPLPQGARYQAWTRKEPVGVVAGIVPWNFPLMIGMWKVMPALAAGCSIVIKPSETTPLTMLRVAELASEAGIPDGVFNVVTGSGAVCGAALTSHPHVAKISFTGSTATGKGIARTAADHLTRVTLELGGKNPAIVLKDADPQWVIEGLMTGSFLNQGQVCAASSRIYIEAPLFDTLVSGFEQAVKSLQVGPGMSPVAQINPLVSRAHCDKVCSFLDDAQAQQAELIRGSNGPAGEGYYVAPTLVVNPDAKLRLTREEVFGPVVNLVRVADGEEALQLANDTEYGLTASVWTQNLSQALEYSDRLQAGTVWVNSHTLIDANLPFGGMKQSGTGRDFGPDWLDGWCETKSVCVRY
In words: Measurement of PadA activity (NADH generation at 340 nm, Michaelis-Menten fit). Format: biochemical, E. coli. To be noted: for kcat: substrate isobutyraldehyde. As to the method:
(§1) Because it produced the greatest amount of isobutyrate, we selected PadA for further study. To characterize the enzyme, PadA was tagged with an N-terminal 6×His-tag, overexpressed, and purified through a Ni-NTA column. The kinetic parameters for conversion of isobutyraldehyde by PadA were determined by measuring the reduction of NAD+ to NADH at 340 nm. PadA activity toward isobutyraldehyde is much lower than that toward its natural physiological substrate phenylacetaldehyde.
(§2) pIBA10 was transformed into BL-21 E. coli host harboring the pREP4 plasmid (Qiagen; Valencia, Calif.). An overnight pre-culture was diluted 100-fold in 300 mL 2×YT rich medium containing 50 mg/L ampicillin, 25 mg/L kanamycin and 0.1 mM IPTG. Expression of recombinant protein was performed at 30° C. overnight.
(§3) The cell pellet was sonicated in 30 mL lysis buffer (250 mM NaCl, 2 mM DTT, 5 mM imidazole and 50 mM Tris pH 8.0). The cellular debris was removed by centrifugation at 15,000 RPM for 20 minutes. The supernatant was passed through a Ni-NTA column. Then the column was washed with 10 mL wash buffer (250 mM NaCl, 20 mM imidazole and 50 mM Tris pH 8.0) four times. Finally, the target protein was eluted with 10 mL elution buffer (250 mM NaCl, 250 mM imidazole and 50 mM Tris pH 8.0). The eluate was buffer-exchanged and concentrated into storage buffer ([…] tris buffer, pH 8.0, and 20% glycerol) using AMICON ULTRA centrifugal filter (Millipore Corp.; Billerica, Mass.). Protein concentration was determined by measuring the UV absorbance at 280 nm (extinction coefficient, 75070 cm^−1 M^−1). The concentrated protein solution was aliquoted (100 μl) into PCR tubes and flash frozen at −80° C. for long term storage.
(§4) Substrate isobutyraldehyde was purchased from Fisher Scientific International, Inc. (Hampton, N.H.), and NAD^+ was from New England Biolabs, Inc., (Ipswich, Mass.). The reaction mixture contained 0.5 mM NAD^+ and 0.2-4 mM isobutyraldehyde in assay buffer (50 mM NaH2PO4, pH 8.0, 1 mM DTT) with a total volume of 80 μl. The reactions were started by adding 2 μl […] (final enzyme concentration 25 nM), and the generation of NADH was monitored at 340 nm (extinction coefficient, 6.22 mM^−1 cm^−1). Kinetic parameters (kat and Km) were determined by fitting initial velocity data to the Michaelis-Menten equation using Origin software.

The next data set deals with YqhD (Escherichia coli, UniProt Q46856). The following applies: Atsumi et al., 2010; cited from earlier work.
Data set [2] has as its target T1, PadA. The following applies: natural substrate phenylacetaldehyde (asterisked line); cited from earlier work.
The subject of the next data set is CC(C)C=O. In words: Measurement of PadA activity (NADH generation at 340 nm, Michaelis-Menten fit). It counts as biochemical, E. coli. To be noted: other: PadA, substrate isobutyraldehyde, 0.5 mM NAD+, pH 8.0, 30.0 °C. Here is the method:
as §1, §2, §3, §4

Chain of YqhD (Q46856 whole entry): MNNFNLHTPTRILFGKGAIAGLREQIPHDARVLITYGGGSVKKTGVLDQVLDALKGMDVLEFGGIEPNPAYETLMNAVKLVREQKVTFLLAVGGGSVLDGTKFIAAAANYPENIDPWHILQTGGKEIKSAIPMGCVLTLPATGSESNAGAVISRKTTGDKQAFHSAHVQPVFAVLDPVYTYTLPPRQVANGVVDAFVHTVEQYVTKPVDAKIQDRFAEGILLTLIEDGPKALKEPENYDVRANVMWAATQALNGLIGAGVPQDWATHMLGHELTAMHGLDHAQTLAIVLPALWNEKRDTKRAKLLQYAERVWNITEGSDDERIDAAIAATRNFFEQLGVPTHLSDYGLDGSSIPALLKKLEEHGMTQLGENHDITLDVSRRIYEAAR

On to `CC(C)C=O` [Isobutyraldehyde, isobutyraldehyde], for which, on PadA [1], the “Km value higher than toward phenylacetaldehyde” value was 230 fold, the “kcat value lower than toward phenylacetaldehyde” value is recorded as 4 fold and the kcat came out at 24.9 ± 0.5 s⁻¹. For the same molecule, on PadA [1] (listed as isobutyraldehyde), the kcat stood at 24.9 s⁻¹. In addition, at YqhD, the Km is 1800 µM.

With `O=CCc1ccccc1` [Phenylacetaldehyde, phenylacetaldehyde], the “specificity constant kcat/Km higher than towards isobutyraldehyde” value at PadA [1] is recorded as approximately 1000 fold. On PadA [2], the Km is 11.6 µM and the kcat is 96.83 s⁻¹.

Turning to PadA (Escherichia coli K-12), the Km in the data set on CC(C)C=O was found to be 2670 µM.
